From patent publication US9359297B2, “Spirolactam derivatives and uses of same” (H. Lundbeck A/S, priority 2009, dated 2016)

biological target: T1, rat metabotropic glutamate receptor 5 (rmGluR5) (Rattus norvegicus, UniProt P31424); experiment: Calcium mobilization (FLIPR) assay for negative allosteric modulation, EC80 glutamate, rmGluR5 in HEK 293; type: cell-based; details: HEK293; rmGluR5, inhibition of EC80 glutamate response; read-out: FLIPR maximum inhibition
T1 construct: expressed in transfected cells
T1 sequence (P31424 21-1203): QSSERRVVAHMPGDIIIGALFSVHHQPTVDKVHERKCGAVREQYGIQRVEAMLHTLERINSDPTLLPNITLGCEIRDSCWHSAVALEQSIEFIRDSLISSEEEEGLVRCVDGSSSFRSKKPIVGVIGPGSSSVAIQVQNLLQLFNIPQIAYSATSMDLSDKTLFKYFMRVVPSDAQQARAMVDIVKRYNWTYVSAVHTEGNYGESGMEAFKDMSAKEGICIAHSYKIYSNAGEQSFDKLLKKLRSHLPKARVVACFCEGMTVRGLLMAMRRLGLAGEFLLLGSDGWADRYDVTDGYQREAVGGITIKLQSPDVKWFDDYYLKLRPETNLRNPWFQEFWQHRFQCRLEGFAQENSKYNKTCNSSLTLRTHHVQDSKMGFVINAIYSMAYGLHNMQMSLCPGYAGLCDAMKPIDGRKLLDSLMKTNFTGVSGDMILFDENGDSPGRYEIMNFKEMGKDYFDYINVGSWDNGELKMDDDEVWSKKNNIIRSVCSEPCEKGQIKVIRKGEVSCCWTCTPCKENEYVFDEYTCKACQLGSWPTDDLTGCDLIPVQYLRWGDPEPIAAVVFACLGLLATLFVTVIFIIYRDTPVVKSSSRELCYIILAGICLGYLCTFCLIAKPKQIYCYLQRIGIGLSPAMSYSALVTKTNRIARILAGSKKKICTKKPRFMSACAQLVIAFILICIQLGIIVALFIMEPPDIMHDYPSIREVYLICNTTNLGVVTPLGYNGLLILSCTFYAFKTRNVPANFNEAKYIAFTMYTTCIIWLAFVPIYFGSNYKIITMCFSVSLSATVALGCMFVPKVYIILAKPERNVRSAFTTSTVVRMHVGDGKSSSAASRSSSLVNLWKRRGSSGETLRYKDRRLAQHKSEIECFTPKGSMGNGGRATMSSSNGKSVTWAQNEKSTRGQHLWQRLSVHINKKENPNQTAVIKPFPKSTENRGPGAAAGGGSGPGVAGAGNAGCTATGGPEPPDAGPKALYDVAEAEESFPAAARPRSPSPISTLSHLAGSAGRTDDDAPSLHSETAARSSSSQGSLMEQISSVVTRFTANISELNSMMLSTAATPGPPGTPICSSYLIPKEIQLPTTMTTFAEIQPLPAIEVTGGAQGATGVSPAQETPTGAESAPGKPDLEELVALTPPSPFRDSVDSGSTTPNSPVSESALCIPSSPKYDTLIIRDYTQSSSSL
Experimental: The cDNA for rat metabotropic glutamate receptor 5 (rmGluR5) and the cDNA for human metabotropic glutamate receptor 5 (hmGluR5) were generous gifts from S. Nakanishi (Kyoto University, Kyoto, Japan). The rmGluR5 or hmGluR5 was stably expressed in a HEK 293 cell line and grown in Dulbecco's Modified Eagle Medium (DMEM) (Invitrogen, Carlsbad, Calif.) with supplements (10% bovine calf serum, 4 mM glutamine, 100 units/mL penicillin, 100 μg/mL streptomycin and 0.75 mM G1418) at 37° C., 5% CO2. Twenty-four hours prior to assay, cells were seeded into 384-well black wall microtiter plates coated with poly-D-lysine. Just prior to assay, media was aspirated and cells dye-loaded (25 μL/well) with 3 μM Fluo-4/0.01% pluronic acid in assay buffer (Hank's Balanced Saline Solution (HBSS)): 150 mM NaCl, 5 mM KCl, 1 mM CaCl2, 1 mM MgCl2, plus 20 mM N-2-Hydroxyethylpiperazine-N′-2-ethanesulfonic acid (HEPES), pH 7.4, 0.1% bovine serum albumin (BSA) and 2.5 mM probenicid) for 1 hour in 5% CO2 at 37° C. After excess dye was discarded, cells were washed in assay buffer and layered with a final volume equal to 30 μL/well. Basal fluorescence is monitored in a fluorometric imaging plate reader (FLIPR) (Molecular Devices, Sunnyvale, Calif.) with an excitation wavelength of 488 nm and an emission range of 500 to 560 nm. Laser excitation energy was adjusted so that basal fluorescence readings were approximately 10,000 relative fluorescent units. Cells were stimulated with an EC20 or an EC80 concentration of glutamate in the presence of a compound to be tested, both diluted in assay buffer, and relative fluorescent units were measured at defined intervals (exposure=0.6 sec) over a 3 min period at room temperature. Basal readings derived from negative controls were subtracted from all samples. Maximum change in fluorescence was calculated for each well. Concentration-response curves derived from the maximum change in fluorescence were analyzed by nonlinear regression (Hill equation). A negative modulator can be identified from these concentration-response curves if a compound produces a concentration dependent inhibition of the EC80 glutamate response.

Emax, 81 to 99%:
Cc1cccc(N2CC[C@]3(CCC[C@H](NC(=O)c4ccccn4)C3)C2=O)n1 (relative stereo) [Example 7, cis-Pyridine-2-carboxylic acid [2-(6-methyl-pyridin-2-yl)-1-oxo-2-aza-spiro [4.5]dec-7-yl]-amide]
N#Cc1cccc(N2CC[C@]3(CCC[C@H](NC(=O)c4ccccn4)C3)C2=O)c1 (relative stereo) [Example 9, cis-Pyridine-2-carboxylic acid [2-(3-cyano-phenyl)-1-oxo-2-aza-spiro[4.5]dec-7-yl]-amide]
Cc1cccc(C(=O)N[C@H]2CCC[C@]3(CCN(c4cccc(C#N)c4)C3=O)C2)n1 (relative stereo) [Example 10, cis-6-Methyl-pyridine-2-carboxylic acid [2-(3-cyano-phenyl)-1-oxo-2-aza-spiro [4.5]dec-7-yl]-amide]
Cc1cncc(C(=O)N[C@H]2CCC[C@]3(CCN(c4cccc(C#N)c4)C3=O)C2)n1 (relative stereo) [Example 11, cis-6-Methyl-pyrazine-2-carboxylic acid [2-(3-cyano-phenyl)-1-oxo-2-aza-spiro [4.5]dec-7-yl]-amide]
Cc1cncc(C(=O)N[C@H]2CCC[C@]3(CCN(c4cccc(Cl)c4)C3=O)C2)n1 (relative stereo) [Example 12, cis-6-Methyl-pyrazine-2-carboxylic acid [2-(3-chloro-phenyl)-1-oxo-2-aza-spiro [4.5]dec-7-yl]-amide]
O=C(N[C@H]1CCC[C@]2(CCN(c3cccc(Cl)c3)C2=O)C1)c1cnccn1 (relative stereo) [Example 13, cis-Pyrazine-2-carboxylic acid [2-(3-chloro-phenyl)-1-oxo-2-aza-spiro[4.5]dec-7-yl]-amide]
Cn1ccc(C(=O)N[C@H]2CCC[C@]3(CCN(c4cccc(Cl)c4)C3=O)C2)n1 (relative stereo) [Example 14, cis-1-Methyl-1H-pyrazole-3-carboxylic acid [2-(3-chloro-phenyl)-1-oxo-2-aza-spiro[4.5]dec-7-yl]-amide]
N#Cc1cccc(N2CC[C@]3(CCC[C@H](NC(=O)c4cccc(F)c4)C3)C2=O)c1 (relative stereo) [Example 15, cis-N-[2-(3-Cyano-phenyl)-1-oxo-2-aza-spiro[4.5]dec-7-yl]-3-fluoro-benzamide]
N#Cc1cccc(N2CC[C@]3(CCC[C@H](NC(=O)c4cccc(Cl)c4)C3)C2=O)c1 (relative stereo) [Example 16, cis-N-[2-(3-Cyano-phenyl)-1-oxo-2-aza-spiro[4.5]dec-7-yl]-3-chloro-benzamide]
Cc1cccc(C(=O)N[C@H]2CCC[C@]3(CCN(c4cccc(F)c4)C3=O)C2)n1 (relative stereo) [Example 17, cis-6-Methyl-pyridine-2-carboxylic acid [2-(3-fluoro-phenyl)-1-oxo-2-aza-spiro[4.5]dec-7-yl]-amide]
Cc1cccc(C(=O)N[C@H]2CCC[C@@]3(CCN(c4cccc(F)c4)C3=O)C2)n1 (relative stereo) [Example 18, trans-6-Methyl-pyridine-2-carboxylic acid [2-(3-fluoro-phenyl)-1-oxo-2-aza-spiro [4.5]dec-7-yl]-amide]
O=C(N[C@H]1CCC[C@@]2(CCN(c3cccc(F)c3)C2=O)C1)c1ccccn1 (relative stereo) [Example 20, trans-Pyridine-2-carboxylic acid [2-(3-fluoro-phenyl)-1-oxo-2-aza-spiro [4.5]dec-7-yl]-amide]
Cc1cncc(C(=O)N[C@H]2CCC[C@]3(CCN(c4cccc(F)c4)C3=O)C2)n1 (relative stereo) [Example 21, cis-6-Methyl-pyrazine-2-carboxylic acid [2-(3-fluoro-phenyl)-1-oxo-2-aza-spiro [4.5]dec-7-yl]-amide]
Cc1cncc(C(=O)N[C@H]2CCC[C@@]3(CCN(c4cccc(F)c4)C3=O)C2)n1 (relative stereo) [Example 22, trans-6-Methyl-pyrazine-2-carboxylic acid[2-(3-fluoro-phenyl)-1-oxo-2-aza-spiro [4.5]dec-7-yl]-amide]
Cc1cccc(N2CC[C@@]3(CCC[C@H](NC(=O)c4cccc(F)c4)C3)C2=O)n1 (relative stereo) [Example 24, trans-3-Fluoro-N-[2-(6-methyl-pyridin-2-yl)-1-oxo-2-aza-spiro[4.5]dec-7-yl]-benzamide]
O=C(N[C@H]1CCC[C@]2(CCN(c3ccccn3)C2=O)C1)c1cccc(F)c1 (relative stereo) [Example 26, 3-Fluoro-N-(1-oxo-2-pyridin-2-yl-2-aza-spiro[4.5]dec-7-yl)-benzamide]
Cc1ccnc(N2CC[C@]3(CCC[C@H](NC(=O)c4ccccn4)C3)C2=O)n1 (relative stereo) [Example 29, cis-Pyridine-2-carboxylic acid [2-(4-methyl-pyrimidin-2-yl)-1-oxo-2-aza-spiro [4.5]dec-7-yl]-amide]
O=C(N[C@H]1CCC[C@]2(CCN(c3cc(F)ccn3)C2=O)C1)c1ccccn1 (relative stereo) [Example 30, cis-Pyridine-2-carboxylic acid [2-(4-fluoro-pyridin-2-yl)-1-oxo-2-aza-spiro[4.5]dec-7-yl]-amide]
Cc1cccc(C(=O)N[C@H]2CCC[C@]3(CCN(c4ccc(F)cn4)C3=O)C2)n1 (relative stereo) [Example 31, cis-6-Methyl-pyridine-2-carboxylic acid [2-(5-fluoro-pyridin-2-yl)-1-oxo-2-aza-spiro[4.5]dec-7-yl]-amide]
Cc1cccc(C(=O)N[C@H]2CCC[C@]3(CCN(c4cc(F)ccn4)C3=O)C2)n1 (relative stereo) [Example 32, cis-6-Methyl-pyridine-2-carboxylic acid [2-(4-fluoro-pyridin-2-yl)-1-oxo-2-aza-spiro[4.5]dec-7-yl]-amide]
O=C(N[C@H]1CCC[C@]2(CCN(c3ccc(F)cn3)C2=O)C1)c1ccccn1 (relative stereo) [Example 33, cis-Pyridine-2-carboxylic acid [2-(5-fluoro-pyridin-2-yl)-1-oxo-2-aza-spiro [4.5]dec-7-yl]-amide]
Cc1cccc(C(=O)N[C@H]2CCC[C@]3(CCN(c4nccc(C)n4)C3=O)C2)n1 (relative stereo) [Example 34, cis-6-Methyl-pyridine-2-carboxylic acid [2-(4-methyl-pyrimidin-2-yl)-1-oxo-2-aza-spiro[4.5]dec-7-yl]-amide]
O=C(N[C@H]1CCC[C@]2(CCN(c3ccc(F)cn3)C2=O)C1)c1cccc(F)c1 (relative stereo) [Example 35, cis-3-Fluoro-N-[2-(5-fluoro-pyridin-2-yl)-1-oxo-2-aza-spiro[4.5]dec-7-yl]-benzamide]
O=C(N[C@H]1CCC[C@]2(CCN(c3cc(F)ccn3)C2=O)C1)c1cccc(F)c1 (relative stereo) [Example 36, cis-3-Fluoro-N-[2-(4-fluoro-pyridin-2-yl)-1-oxo-2-aza-spiro[4.5]dec-7-yl]-benzamide]
Cc1ccnc(N2CC[C@]3(CCC[C@H](NC(=O)c4cccc(F)c4)C3)C2=O)n1 (relative stereo) [Example 37, cis-3-Fluoro-N-[2-(4-methyl-pyrimidin-2-yl)-1-oxo-2-aza-spiro[4.5]dec-7-yl]-benzamide]
Cc1cncc(N2CC[C@]3(CCC[C@H](NC(=O)c4cccc(F)c4)C3)C2=O)n1 (relative stereo) [Example 38, cis-3-Fluoro-N-[2-(6-methyl-pyrazin-2-yl)-1-oxo-2-aza-spiro[4.5]dec-7-yl]-benzamide]
Cc1cncc(N2CC[C@]3(CCC[C@H](NC(=O)c4ccccn4)C3)C2=O)n1 (relative stereo) [Example 39, cis-Pyridine-2-carboxylic acid [2-(6-methyl-pyrazin-2-yl)-1-oxo-2-aza-spiro [4.5]dec-7-yl]-amide]
Cc1cccc(C(=O)N[C@H]2CCC[C@]3(CCN(c4cncc(C)n4)C3=O)C2)n1 (relative stereo) [Example 40, cis-6-Methyl-pyridine-2-carboxylic acid [2-(6-methyl-pyrazin-2-yl)-1-oxo-2-aza-spiro[4.5]dec-7-yl]-amide]
